Test results from ChEMBL document CHEMBL1909511, “Inhalation by design: novel tertiary amine muscarinic M₃ receptor antagonists with slow off-rate binding kinetics for inhaled once-daily treatment of chronic obstructive pulmonary disease” (J Med Chem, 2011).

What was measured:
[1] = Intrinsic clearance in human liver microsomes assessed per mg of protein by glucuronidation assay in presence of Brijj-58 and UDPGA
[2] = biological target: T1, Muscarinic acetylcholine receptor M3 (Homo sapiens, UniProt P20309); conditions: CHO
Target sequence in this assay (P20309 whole entry, looked up): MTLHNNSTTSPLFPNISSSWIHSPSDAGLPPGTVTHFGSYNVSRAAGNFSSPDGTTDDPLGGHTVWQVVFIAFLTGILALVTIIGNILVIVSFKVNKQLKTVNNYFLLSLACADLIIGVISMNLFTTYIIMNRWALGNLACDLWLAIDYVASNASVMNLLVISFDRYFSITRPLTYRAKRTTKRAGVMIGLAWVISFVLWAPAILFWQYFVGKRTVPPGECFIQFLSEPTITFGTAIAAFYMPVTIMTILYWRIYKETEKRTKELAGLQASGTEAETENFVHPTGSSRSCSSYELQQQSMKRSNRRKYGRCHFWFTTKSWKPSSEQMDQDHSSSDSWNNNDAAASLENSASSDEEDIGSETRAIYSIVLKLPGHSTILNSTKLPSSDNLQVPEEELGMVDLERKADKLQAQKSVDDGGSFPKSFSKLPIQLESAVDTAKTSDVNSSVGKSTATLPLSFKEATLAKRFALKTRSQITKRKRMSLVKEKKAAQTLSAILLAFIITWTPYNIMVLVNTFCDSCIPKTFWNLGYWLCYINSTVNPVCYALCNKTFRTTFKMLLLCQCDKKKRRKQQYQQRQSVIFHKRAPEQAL

[3] = Intrinsic clearance in human liver microsomes assessed per mg of protein in presence of NADPH
[4] = Intrinsic clearance in human hepatocytes assessed per million cells
[5] = biological target: T1, Muscarinic acetylcholine receptor M3; experiment: Antagonist activity at human recombinant M3 receptor expressed in CHO-K1 cells assessed as inhibition of carbamoyl choline-induced calcium currents after 4 hrs by fluorimetry; format: functional, cell-based
Target sequence in this assay (P20309 whole entry): as the sequence (P20309 whole entry, looked up) above

[6] = biological target: Muscarinic acetylcholine receptor M3 (Cavia porcellus) (UniProt Q8VH26); experiment: Antagonist activity at M3 receptor in Dunkin-Hartley guinea pig tracheal strips assessed as time taken for electrically field-stimulated contractile response to recover by 25 percent of inhibition at Emax after 2 hrs; format: functional
Muscarinic acetylcholine receptor M3 (Cavia porcellus), sequence (Q8VH26 1-587): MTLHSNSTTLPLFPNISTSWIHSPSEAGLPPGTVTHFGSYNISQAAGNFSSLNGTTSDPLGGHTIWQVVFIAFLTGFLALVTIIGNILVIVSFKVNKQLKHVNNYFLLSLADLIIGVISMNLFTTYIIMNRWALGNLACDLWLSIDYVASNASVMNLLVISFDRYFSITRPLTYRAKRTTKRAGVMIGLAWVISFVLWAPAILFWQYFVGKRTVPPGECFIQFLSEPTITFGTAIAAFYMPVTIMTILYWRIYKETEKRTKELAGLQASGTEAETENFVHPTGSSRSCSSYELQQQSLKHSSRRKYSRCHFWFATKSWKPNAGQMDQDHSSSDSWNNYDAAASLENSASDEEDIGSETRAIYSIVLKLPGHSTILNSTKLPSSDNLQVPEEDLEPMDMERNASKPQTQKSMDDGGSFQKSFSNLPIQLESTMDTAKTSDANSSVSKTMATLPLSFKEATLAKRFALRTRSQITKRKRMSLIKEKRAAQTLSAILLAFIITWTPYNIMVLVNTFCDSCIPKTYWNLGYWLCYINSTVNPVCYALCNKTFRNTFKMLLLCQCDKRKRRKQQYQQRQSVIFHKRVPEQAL

[7] = biological target: Muscarinic acetylcholine receptor M3 (Cavia porcellus, UniProt Q8VH26); experiment: Antagonist activity at M3 receptor in Dunkin-Hartley guinea pig tracheal strips assessed as inhibition of electrically field-stimulated contractile response after 8 hrs; format: functional
Muscarinic acetylcholine receptor M3 (Cavia porcellus, UniProt Q8VH26), sequence (Q8VH26 whole entry): as the sequence (Q8VH26 1-587) above

[8] = tested on: Cavia porcellus; experiment: Bronchodilator activity in Dunkin-Hartley guinea pig assessed as inhibition of […] lung resistance after cumulative intratracheal administration in micelle solution at hourly intervals challenged each time 1 hr later with methacholine; format: functional, organism-based
[9] = biological target: T1, Muscarinic acetylcholine receptor M3; experiment: Displacement of [3H]-NMS from human recombinant M3 receptor expressed in CHO cells after 2 hrs by filter binding assay; format: cell-based
Target sequence in this assay (P20309 whole entry): as the sequence (P20309 whole entry, looked up) above

[10] = biological target: T2, Muscarinic acetylcholine receptor M2 (Homo sapiens, UniProt P08172); experiment: Displacement of [3H]-NMS from human recombinant M2 receptor expressed in CHO cells after 2 hrs by filter binding assay; format: cell-based
T2 sequence (P08172 whole entry): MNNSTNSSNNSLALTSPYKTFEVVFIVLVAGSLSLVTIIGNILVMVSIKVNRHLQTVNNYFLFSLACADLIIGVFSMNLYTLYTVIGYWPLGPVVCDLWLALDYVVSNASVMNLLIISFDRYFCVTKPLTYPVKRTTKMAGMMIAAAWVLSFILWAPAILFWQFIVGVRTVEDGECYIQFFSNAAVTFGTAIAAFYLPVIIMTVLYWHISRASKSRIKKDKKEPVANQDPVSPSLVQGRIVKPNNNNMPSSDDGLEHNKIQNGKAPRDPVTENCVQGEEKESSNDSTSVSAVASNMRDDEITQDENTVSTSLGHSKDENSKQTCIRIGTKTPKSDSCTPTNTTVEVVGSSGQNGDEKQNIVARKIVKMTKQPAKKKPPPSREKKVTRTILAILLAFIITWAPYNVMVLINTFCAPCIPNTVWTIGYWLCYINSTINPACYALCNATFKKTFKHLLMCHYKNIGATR

[11] = biological target: T1, Muscarinic acetylcholine receptor M3
Target sequence in this assay (P20309 whole entry, looked up): as the sequence (P20309 whole entry, looked up) above

[12] = biological target: T3, Muscarinic acetylcholine receptor M2 (Homo sapiens) (UniProt P08172); experiment: Displacement of [3H]-NMS from human recombinant M2 receptor expressed in CHO cells assessed as dissociation half life at 100 fold human M2 receptor binding Ki concentration after 24 hrs by dilution-offset filter binding assay; format: cell-based
T3 sequence (whole entry): T2 sequence (P08172 whole entry)

[13] = biological target: T4, Muscarinic acetylcholine receptor M1 (Homo sapiens) (UniProt P11229); experiment: Displacement of [3H]-NMS from human recombinant M1 receptor expressed in CHO cells assessed as dissociation half life at 100 fold human M1 receptor binding Ki concentration after 24 hrs by dilution-offset filter binding assay; format: cell-based
T4 sequence (whole entry): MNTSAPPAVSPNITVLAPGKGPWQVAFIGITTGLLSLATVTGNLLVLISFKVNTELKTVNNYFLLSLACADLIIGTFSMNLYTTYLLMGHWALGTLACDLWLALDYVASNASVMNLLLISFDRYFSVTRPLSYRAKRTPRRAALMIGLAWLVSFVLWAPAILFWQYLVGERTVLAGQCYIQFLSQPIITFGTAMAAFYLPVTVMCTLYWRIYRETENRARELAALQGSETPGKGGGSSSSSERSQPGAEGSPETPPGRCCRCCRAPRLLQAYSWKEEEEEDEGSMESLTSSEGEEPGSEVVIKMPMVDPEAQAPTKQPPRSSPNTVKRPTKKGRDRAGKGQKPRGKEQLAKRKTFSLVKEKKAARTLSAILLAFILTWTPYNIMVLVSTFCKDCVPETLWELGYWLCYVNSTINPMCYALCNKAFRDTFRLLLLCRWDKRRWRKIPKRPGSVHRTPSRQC

[14] = biological target: T5, Muscarinic acetylcholine receptor M4 (Homo sapiens, UniProt P08173); experiment: Displacement of [3H]-NMS from human recombinant M4 receptor expressed in CHO cells after 24 hrs by filter binding assay; format: cell-based
T5 sequence (P08173 whole entry): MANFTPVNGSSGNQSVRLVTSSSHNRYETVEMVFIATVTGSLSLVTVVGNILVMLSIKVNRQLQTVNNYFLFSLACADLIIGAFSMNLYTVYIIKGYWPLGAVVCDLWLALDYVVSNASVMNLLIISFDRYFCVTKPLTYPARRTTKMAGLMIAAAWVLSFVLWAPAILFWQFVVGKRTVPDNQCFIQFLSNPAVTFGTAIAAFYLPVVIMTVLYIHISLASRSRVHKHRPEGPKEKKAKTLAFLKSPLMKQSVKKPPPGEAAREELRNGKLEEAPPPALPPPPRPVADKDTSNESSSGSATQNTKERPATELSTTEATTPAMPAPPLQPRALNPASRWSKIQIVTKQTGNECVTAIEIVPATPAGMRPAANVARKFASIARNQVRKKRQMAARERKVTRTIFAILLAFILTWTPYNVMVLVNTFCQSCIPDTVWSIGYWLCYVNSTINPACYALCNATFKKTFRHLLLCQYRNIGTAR

[15] = biological target: T6, Muscarinic acetylcholine receptor M5 (Homo sapiens, UniProt P08912); experiment: Displacement of [3H]-NMS from human recombinant M5 receptor expressed in CHO cells after 24 hrs by filter binding assay; format: cell-based
T6 sequence (P08912 whole entry): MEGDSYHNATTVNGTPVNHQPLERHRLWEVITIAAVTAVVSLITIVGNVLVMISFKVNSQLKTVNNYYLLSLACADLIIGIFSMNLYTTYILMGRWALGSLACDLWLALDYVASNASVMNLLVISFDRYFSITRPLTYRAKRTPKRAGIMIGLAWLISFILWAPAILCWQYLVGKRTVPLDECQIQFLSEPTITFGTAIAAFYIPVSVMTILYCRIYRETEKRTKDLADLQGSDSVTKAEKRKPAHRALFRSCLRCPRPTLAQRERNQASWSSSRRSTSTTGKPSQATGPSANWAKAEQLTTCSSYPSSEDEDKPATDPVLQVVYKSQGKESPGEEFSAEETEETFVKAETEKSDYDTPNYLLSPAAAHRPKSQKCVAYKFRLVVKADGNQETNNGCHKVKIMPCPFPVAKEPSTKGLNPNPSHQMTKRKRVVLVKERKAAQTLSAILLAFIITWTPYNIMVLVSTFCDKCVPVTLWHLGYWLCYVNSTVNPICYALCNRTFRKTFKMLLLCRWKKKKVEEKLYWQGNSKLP

[16] = biological target: T1, Muscarinic acetylcholine receptor M3; remark: listed apart in the source
Target sequence in this assay (P20309 whole entry, looked up): as the sequence (P20309 whole entry, looked up) above
Description: Displacement of radioligand from M3 receptor assessed as dissociation half life

[17] = biological target: T7, Muscarinic acetylcholine receptor M5 (Homo sapiens) (UniProt P08912); experiment: Displacement of [3H]-NMS from human recombinant M5 receptor expressed in CHO cells assessed as dissociation half life at 100 fold human M5 receptor binding Ki concentration after 24 hrs by dilution-offset filter binding assay; format: cell-based
T7 sequence (whole entry): T6 sequence (P08912 whole entry)

[18] = tested on: Canis familiaris; experiment: Bronchodilator activity in Beagle dog assessed as inhibition of methacholine-induced lung resistance after cumulative intratracheal administration in micelle solution at hourly intervals challenged each time 1 hr later with methacholine; format: functional, Canis lupus familiaris
[19] = tested on: Canis familiaris; experiment: Bronchodilator activity in methacholine challenged Beagle dog assessed as intrinsic duration of action at 10 ug intratracheally administered as single dose in micelle solution; format: functional, Canis lupus familiaris
[20] = biological target: T8, Muscarinic acetylcholine receptor M4 (Homo sapiens) (UniProt P08173); experiment: Displacement of [3H]-NMS from human recombinant M4 receptor expressed in CHO cells assessed as dissociation half life at 100 fold human M4 receptor binding Ki concentration after 24 hrs by dilution-offset filter binding assay; format: cell-based
T8 sequence (whole entry): T5 sequence (P08173 whole entry)

[21] = biological target: T1, Muscarinic acetylcholine receptor M3; conditions: CHO; remark: listed apart in the source
Target sequence in this assay (P20309 whole entry, looked up): as the sequence (P20309 whole entry, looked up) above

[22] = Apparent permeability across basolateral to apical side in human Caco2 cells; format: ADME, cell-based; conditions: Caco-2
[23] = Apparent permeability across apical to basolateral side in human Caco2 cells; format: ADME, cell-based; conditions: Caco-2

With `CC(C)(CCC(C(N)=O)(c1ccccc1)c1ccccc1)N1CC(Oc2ccc(Cl)c(O)c2)C1` the microsomal CLint [1] was 430 µL/min/mg, the T1/2 [2] was 23.5 h and the microsomal CLint [3] was 116 µL/min/mg. The hepatocyte CLint [4] was 159 µL/min/1e6 cells and the Ki [5] was 1.9 nM.
`CC(C)(CCC(C(N)=O)(c1ccccc1)c1ccccc1)N1CC(Oc2cc(O)cc(F)c2)C1` gave a microsomal CLint [1] of 403 µL/min/mg and a microsomal CLint [3] of 176 µL/min/mg.
For `CC(C)(CCC(C(N)=O)(c1ccccc1)c1ccccc1)N1CC(Oc2cc(O)cc(Cl)c2)C1`, the microsomal CLint [1] was 223 µL/min/mg, the microsomal CLint [3] was 361 µL/min/mg and the hepatocyte CLint [4] was 116 µL/min/1e6 cells. For the same compound, the Ki [5] was 0.22 nM.
For `CC(C)(CCC(C(N)=O)(c1ccccc1)c1ccccc1)N1CC[C@H](Oc2cccc(O)c2)C1`, the TIME [6] was > 16 h, the IC50 [7] was 4.3 nM and the ED50 [8] was 10 µg.
`CC(C)(CCC(C(N)=O)(c1ccccc1)c1ccccc1)N1CC[C@H](Oc2ccc(Cl)c(O)c2)C1` showed a T1/2 [2] of 13.4 h and a Ki [5] of 2 nM.
For `CC(C)(CCC(C(N)=O)(c1ccccc1)c1ccccc1)N1CC[C@@H](Oc2cccc(O)c2)C1`, the TIME [6] was > 16 h, the IC50 [7] was 3.87 nM and the ED50 [8] was 20 µg.
In the case of `CC(C)(CCC(C(N)=O)(c1ccccc1)c1ccccc1)N1CC(OCc2cccc(O)c2)C1`, the microsomal CLint [1] is reported as 13 µL/min/mg, the T1/2 [2] is reported as 20.7 h and the microsomal CLint [3] is reported as 364 µL/min/mg. The hepatocyte CLint [4] was 34 µL/min/1e6 cells and the Ki [5] was 0.18 nM.
For `CC(C)(CCC(C(N)=O)(c1ccccc1)c1ccccc1)N1CCC(Oc2ccccc2)CC1`, the T1/2 [2] was 17.5 h, the Ki [9] was 3.9 nM and the Ki [10] was 2.6 nM.
For `CC(C)(CCC(C(N)=O)(c1ccccc1)c1ccccc1)N1CC(Oc2ccccc2O)C1`, the Ki [5] was 11 nM.
In the case of `CC(C)(CCC(C(N)=O)(c1ccccc1)c1ccccc1)N1CC[C@@H](Oc2cc(O)cc(F)c2)C1`, the T1/2 [2] is reported as > 24 h, the microsomal CLint [3] is reported as > 440 µL/min/mg and the hepatocyte CLint [4] is reported as 114 µL/min/1e6 cells. It also gave a Ki [5] of 0.56 nM.
In the case of `NC(=O)C(CCCN1CC[C@H](Oc2ccccc2)C1)(c1ccccc1)c1ccccc1`, the T1/2 [2] is reported as 0.633 h, the Ki [9] is reported as 1.9 nM and the Ki [10] is reported as 15 nM. It also gave a Ki [5] of 2.4 nM.
In the case of `C[N+]1(C)[C@@H]2C[C@@H](OC(=O)C(O)(c3cccs3)c3cccs3)C[C@H]1[C@@H]1O[C@@H]12.O.[Br-]` [TIOTROPIUM BROMIDE], the T1/2 [2] is reported as > 24 h, the pKb [11] is reported as 10.2 and the T1/2 [12] is reported as > 13 h. The T1/2 [13] was > 23.8 h, the Ki [14] was 0.0078 nM and the TIME [6] was > 12.9 h. For the same compound, the Ki [15] was 0.0266 nM, the T1/2 [16] was 9.45 h and the T1/2 [17] was > 24 h. The ID50 [18] was 3 µg, the Time [19] was 32 h and the T1/2 [20] was > 24 h. For the same compound, the T1/2 [21] was > 22.8 h.
In the case of `CC(C)(CCC(C(N)=O)(c1ccccc1)c1ccccc1)N1CC(Oc2cccc(O)c2F)C1`, the TIME [6] is reported as > 16 h, the IC50 [7] is reported as 3.48 nM and the ED50 [8] is reported as 4 µg.
With `CC(C)(CCC(C(N)=O)(c1ccccc1)c1ccccc1)N1CC[C@@H](Oc2ccccc2)C1` the T1/2 [2] was > 24 h, the Ki [9] was 6.4 nM and the Ki [10] was 12 nM. The Ki [5] was 1.6 nM.
In the case of `CC(C)(CCC(C(N)=O)(c1ccccc1)c1ccccc1)N1CC[C@H](Oc2ccccc2)C1`, the T1/2 [2] is reported as > 24 h, the Ki [9] is reported as 1.8 nM and the Papp B→A [22] is reported as 13 ×10⁻⁶ cm/s. The Ki [10] was 1.6 nM, the Papp A→B [23] was 16 ×10⁻⁶ cm/s and the Ki [5] was 0.25 nM.
For `CC(C)(CCC(C(N)=O)(c1ccccc1)c1ccccc1)N1CC(Oc2ccccc2)C1`, the T1/2 [2] was 8.02 h, the Ki [9] was 0.11 nM and the microsomal CLint [3] was > 440 µL/min/mg. It also gave a Ki [10] of 0.056 nM.
Compound `CC(C)[N+]1(C)C2CCC1CC(OC(=O)C(CO)c1ccccc1)C2.O.[Br-]` (stereo not given) has a TIME [6] of 1.47 h and an ID50 [18] of 10 µg.
For `CC(C)(CCC(C(N)=O)(c1ccccc1)c1ccccc1)N1CC[C@H](Oc2ccc(O)cc2)C1`, the T1/2 [2] was 3.82 h and the Ki [5] was 0.76 nM.
